Measurements published in PMC9646721, “Alkaloid binding to opium poppy major latex proteins triggers structural modification and functional aggregation” (Nature Communications, 2022).
≈ marks a conversion by molar mass, not a printed value. Where “and” joins values, the source holds several entries; their conditions need not be identical. Identical values can stand only once. Like-named read-outs stand apart in the source and are kept apart here.

Columns and labels:
MLP2 = experiment: ANS displacement assay; type: binding, Papaver somniferum; conditions: for IC50 / Log10IC50: 10 µM protein and 10 µM ANS, CBS pH 5.5; for Kd: from average IC50 and PR10-ANS Kd, competitive inhibition assumed, read-out: Estimated Kd
Source text: (§1) Eluates were store separately on ice.
(§2) Displacement of ANS is associated with reduced fluorescence.

PR10-12 [1] = experiment: ANS displacement assay; type: binding, Papaver somniferum; conditions: for IC50 / Log10IC50: 10 µM protein and 10 µM ANS, CBS pH 5.5; for Kd: from average IC50 and PR10-ANS Kd, competitive inhibition assumed, read-out: Estimated Kd
Source text: as §1, §2

PR10-4 = experiment: ANS displacement assay; type: binding, Papaver somniferum; conditions: for IC50 / Log10IC50: 10 µM protein and 10 µM ANS, CBS pH 5.5; for Kd: from average IC50 and PR10-ANS Kd, competitive inhibition assumed, read-out: Estimated Kd
Source text: as §1, §2

PR10-10 [2] = target: T1, PR10-10 (Papaver somniferum, UniProt A0A9Y2YA81); experiment: ANS displacement assay; type: binding; conditions: ANS displacement dose-response fit
T1 sequence (A0A9Y2YA81 1-158): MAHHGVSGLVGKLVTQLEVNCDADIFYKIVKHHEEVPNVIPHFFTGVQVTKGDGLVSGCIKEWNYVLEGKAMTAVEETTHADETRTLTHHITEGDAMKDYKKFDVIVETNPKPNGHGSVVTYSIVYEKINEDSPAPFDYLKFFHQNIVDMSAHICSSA
Source text: as §1, §2

PR10-10 [3] = target: T1, PR10-10; experiment: Isothermal titration calorimetry; type: binding; conditions: for Kd: ITC
Method: (§3) ITC experiments were conducted using a Microcal VP instrument (Malvern Pananalytical, Malvern, UK). […] Eluates were twice dialysed to equilibrium (i.e., 10–12 h at 4 °C) against a 1000-fold (2–4 L) volume of PBS, pH 7.4 (25 mM sodium phosphate, 50 mM NaCl) or CBS, pH 5.5, resulting in a theoretical million-fold dilution of undesired small molecules (e.g., <0.2 µM imidazole). Dialysis was carried out in boiled Spectra/Por 1 6–8 kDa MWCO 0.32 ml/cm (Spectrum Labs, USA) tubing thoroughly washed with either buffer before use. The second 1000-fold volume of dialysis buffer was filtered and degassed using a reusable bottle-top filtration apparatus (Nalgene, USA) with disposable […] cellulose filters (VWR, Canada) prior to storage at 4 °C. Ligands were dissolved in the filtered dialysis buffer at 21 °C for approximately one hour, and any insoluble material was removed by repeated centrifugation at 21,000 × g for 10 min. […] Prior to ITC, which was initiated immediately following dialysis, the protein solutions were centrifuged at 17,000 × g and 4 °C for 30 min. Any precipitate was separated from the remaining soluble protein fraction which was quantified by absorption at A280nm and diluted with filtered dialysis buffer immediately before use.
(§4) Thermograms were recorded at 25 °C, with a reference power of 10 (dpu/sec) and monitoring of 30 injections of 9 µl BIA ligand solutions into a sample cell containing 1.4 ml of an MLP/PR10 protein solution, with 300 seconds between injections. […] To ensure that we report only the heat of reaction for each interaction, independent titrations of ligand into buffer, and buffer into protein solutions, were used to calculate and then subtract heats of dilution. After subtraction, binding isotherms were analyzed in MicroCal Origin 7 (MicroCal, USA) by fitting a single-site binding model using non-linear least squares regression analysis repeated until convergence. […] Each ITC experiment was repeated 2 to 4 times.

[4] = Ligand solubility threshold in ITC buffer; type: physicochemical; conditions: filtered dialysis buffer (CBS, 21 °C, aqueous buffer, thermodynamic from solid); pH 5.5, ITC buffer
Method: ITC experiments were conducted using a Microcal VP instrument (Malvern Pananalytical, Malvern, UK). Recombinant MLP/PR10 protein preparation involving production in Escherichia coli followed by cobalt-affinity chromatography was optimized to yield relatively high purity in a single step as determined by SDS-PAGE and colloidal Coomassie blue silver staining. The less than 48 h decrease in atmospheric oxygen exposure generated high-quality proteins with reduced precipitate. […] Eluates were twice dialysed to equilibrium (i.e., 10–12 h at 4 °C) against a 1000-fold (2–4 L) volume of PBS, pH 7.4 (25 mM sodium phosphate, 50 mM NaCl) or CBS, pH 5.5, resulting in a theoretical million-fold dilution of undesired small molecules (e.g., <0.2 µM imidazole). […] Any precipitate was separated from the remaining soluble protein fraction which was quantified by absorption at A280nm and diluted with filtered dialysis buffer immediately before use.
Thermograms were recorded at 25 °C, with a reference power of 10 (dpu/sec) and monitoring of 30 injections of 9 µl BIA ligand solutions into a sample cell containing 1.4 ml of an MLP/PR10 protein solution, with 300 seconds between injections. […] After subtraction, binding isotherms were analyzed in MicroCal Origin 7 (MicroCal, USA) by fitting a single-site binding model using non-linear least squares regression analysis repeated until convergence. […]

[5] = Sucrose density-gradient fractionation of Przemko latex with exogenous alkaloid; parameters: species or system Papaver somniferum; conditions: exogenous alkaloid (420-460 mM) added to 80 µL Przemko latex, 14-66% sucrose gradient
Method: Sucrose solutions (66%, 58%, 46%, 38%, 30%, 24 and 14% [w/v]) were prepared in 50 mM HEPES, pH 7.0, containing 5 mM EDTA. Continuous sucrose density gradients were prepared by layering the solutions (3 mL of 66, 58 and 46%, 6 mL of 38%, and 7 mL of 30, 24 and 14% [w/v] sucrose) in 38-mL thin-wall ultracentrifuge tubes (Beckman Coulter, USA) followed by equilibration at 4 °C for 24 h. Fresh latex (80 µL) was collected from decapitated unripe seed capsules in 1.5-mL microcentrifuge tubes and stored on ice for immediate loading on the sucrose gradients. […] Samples were incubated on ice for 30 min then diluted in 2 mL of latex suspension buffer (500 mM mannitol, 50 mM HEPES, pH 7.0, 5 mM EDTA, 1 mM PMSF) and layered onto sucrose density gradients, which were then centrifuged in an AH-629 rotor (Sorvall, USA) for 3 h at 100,000 × g at 4 °C. The bottom of the ultracentrifuge tube was punctured by a flame-heated 21 G needle and a total of 22 fractions (~1.7 mL) were collected manually. The refractive index of each fraction was measured by a digital refractometer (Reichert, USA) and converted to density. Protein concentration was determined by Bradford assay (BioRad, USA) and samples were stored at −80 °C until use.

THS2 [6] = target: T2, THS2 (Papaver somniferum, UniProt A0A2U9GGW3); experiment: ANS displacement assay
Method: (§5) 8-anilino-1-naphthalenesulfonic acid (ANS) fluorescence binding curves and the binding-induced reduction in ANS fluorescence resulting from competition with tested ligands across a range of concentration facilitated the measurement of IC50 and an estimate of Kd values using the binding models and procedures described previously[70]. […] ANS was dissolved in dimethylsufoxide at a concentration of 20 mM, stored at −20 °C until dilution and protected from exposure to light. […] 40 µl of the ANS solution and 40 µl of each MLP/PR10 protein solution were combined to 80 µl final reaction volumes, which were incubated at 21 °C for 10 min to allow equilibration of binding. Triplicate 18-µl aliquots were withdrawn from each 80 µl reaction, transferred to optically clear PCR tubes (Diamed, Canada) and ANS fluorescence was measured following an additional 3-min incubation at 30 °C using a Qiagen Rotor-gene Q 6-plex with excitation and emission filters of 365 ± 20 nm and 460 ± 20 nm, respectively. An identical reaction series whereby protein was omitted from the mixtures was measured under identical conditions and trace fluorescence was subtracted from each MLP/PR10 protein-containing sample. Each data set was scaled so that the maximum observed fluorescence corresponded to 100% and individual data points were plotted, and a rectangular hyperbolic ligand binding function was fit, using least-squares analysis (Prism 5 software, Graphpad, USA). Experiments were repeated at least twice with independently prepared protein.
(§6) Displacement of ANS is associated with reduced fluorescence. […] Briefly, 40 µl of 20 µM ANS and individual MLP/ PR10 protein solutions were combined in CBS buffer, pH 5.5, incubated at 21 °C for 5 min, mixed with 40 µl of separate 0 to 6 mM BIA solutions in CBS buffer, pH 5.5, and the 80 µl reactions were subsequently incubated for 10 min at 21 °C. Fluorescence was measured as described above, including subtraction of any fluorescence in a blank series whereby protein was omitted. […] Each experiment was repeated at least twice with independently prepared MLP/PR10 proteins and BIA ligand.

NISO [7] = target: T3, NISO (Papaver somniferum, UniProt P0DYP9); experiment: ANS displacement assay; conditions: for IC50: IC50, NISO; for IC50 / Log10IC50: 10 µM protein and 10 µM ANS, CBS pH 5.5; for Log10IC50 / Hill Slope: NISO; for Hill Slope: ANS displacement dose-response fit
Method: as §5, §6

MLP15 = target: T4, MLP15 (Papaver somniferum, UniProt P19825); experiment: ANS displacement assay; conditions: for IC50: IC50, MLP15; for IC50 / Log10IC50: 10 µM protein and 10 µM ANS, CBS pH 5.5; for Log10IC50 / Hill Slope: MLP15; for Hill Slope: ANS displacement dose-response fit
T4 sequence (P19825 1-159): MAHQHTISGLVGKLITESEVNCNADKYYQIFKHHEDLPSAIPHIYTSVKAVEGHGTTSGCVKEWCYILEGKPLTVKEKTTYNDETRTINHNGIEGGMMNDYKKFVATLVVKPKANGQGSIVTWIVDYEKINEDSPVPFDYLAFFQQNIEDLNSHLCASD
Method: as §5, §6

PR10-12 [8] = experiment: Isothermal titration calorimetry; type: binding, Papaver somniferum; conditions: ITC, PBS pH 7.4, 25 °C, single-site model
Method: ITC experiments were conducted using a Microcal VP instrument (Malvern Pananalytical, Malvern, UK). Recombinant MLP/PR10 protein preparation involving production in Escherichia coli followed by cobalt-affinity chromatography was optimized to yield relatively high purity in a single step as determined by SDS-PAGE and colloidal Coomassie blue silver staining. The less than 48 h decrease in atmospheric oxygen exposure generated high-quality proteins with reduced precipitate. […] Eluates were twice dialysed to equilibrium (i.e., 10–12 h at 4 °C) against a 1000-fold (2–4 L) volume of PBS, pH 7.4 (25 mM sodium phosphate, 50 mM NaCl) or CBS, pH 5.5, resulting in a theoretical million-fold dilution of undesired small molecules (e.g., <0.2 µM imidazole). Dialysis was carried out in boiled Spectra/Por 1 6–8 kDa MWCO 0.32 ml/cm (Spectrum Labs, USA) tubing thoroughly washed with either buffer before use. The second 1000-fold volume of dialysis buffer was filtered and degassed using a reusable bottle-top filtration apparatus (Nalgene, USA) with disposable […] cellulose filters (VWR, Canada) prior to storage at 4 °C. Ligands were dissolved in the filtered dialysis buffer at 21 °C for approximately one hour, and any insoluble material was removed by repeated centrifugation at 21,000 × g for 10 min. No change in pH occurred following substrate addition. Prior to ITC, which was initiated immediately following dialysis, the protein solutions were centrifuged at 17,000 × g and 4 °C for 30 min. Any precipitate was separated from the remaining soluble protein fraction which was quantified by absorption at A280nm and diluted with filtered dialysis buffer immediately before use.
as §4, with “injections. Protein concentrations varied from 10 to 150 µM to achieve an optimal C value and curve shape valid for parameter calculation.” for “injections.”

NISO [9] = target: T3, NISO; experiment: Isothermal titration calorimetry; type: binding; parameters: made in house; host or cells: E. coli ArcticExpress (DE3); conditions: ITC, PBS pH 7.4, 25 °C; for N / Kd: single-site model
Method: as §3, §4

THS2 [10] = target: T2, THS2; experiment: Isothermal titration calorimetry; type: binding; parameters: made in house; host or cells: E. coli ArcticExpress (DE3); conditions: ITC, PBS pH 7.4, 25 °C; for N / Kd: single-site model
Method: as §3, §4

T2 sequence (A0A2U9GGW3 whole entry): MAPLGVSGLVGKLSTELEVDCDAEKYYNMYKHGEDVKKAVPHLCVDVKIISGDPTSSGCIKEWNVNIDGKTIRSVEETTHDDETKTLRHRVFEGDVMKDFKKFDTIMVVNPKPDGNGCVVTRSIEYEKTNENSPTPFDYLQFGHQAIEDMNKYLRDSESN
T3 sequence (P0DYP9 entry or part of it): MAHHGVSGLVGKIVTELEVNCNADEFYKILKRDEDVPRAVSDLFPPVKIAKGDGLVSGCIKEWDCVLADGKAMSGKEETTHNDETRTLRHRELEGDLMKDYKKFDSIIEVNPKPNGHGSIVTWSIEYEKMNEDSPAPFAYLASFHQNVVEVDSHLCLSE

| Compound | IC50 (MLP2) [µM] | Log10IC50 (MLP2) | Kd (MLP2) [µM] | IC50 (PR10-12 [1]) [µM] | Log10IC50 (PR10-12 [1]) | Kd (PR10-12 [1]) [µM] | IC50 (PR10-4) [µM] | Log10IC50 (PR10-4) | Kd (PR10-4) [µM] | Hill Slope (PR10-10 [2]) | Kd (NISO [7]) [µM] | IC50 (NISO [7]) | Log10IC50 (NISO [7]) | Hill Slope (NISO [7]) | Kd (MLP15) [µM] | IC50 (MLP15) [µM] | Log10IC50 (MLP15) | Hill Slope (MLP15) | Kd (PR10-12 [8]) [µM] | ΔH (NISO [9]) [kcal/mol] | other results |
| --- | --- | --- | --- | --- | --- | --- | --- | --- | --- | --- | --- | --- | --- | --- | --- | --- | --- | --- | --- | --- | --- |
| COc1ccc(Cc2nccc3cc(OC)c(OC)cc23)cc1OC [Papaverine, papaverine] | 61.4 | 1.79 ± 0.07 | 45.5 | 158 | 2.20 ± 0.09 | 154 | 41.7 | 1.62 ± 0.05 | 38.1 | -0.36 ± 0.27 | 82 | 96 µM and 95.5 µM | 1.98 ± 0.05 | -1.20 ± 0.05 | 265 | 299 | 2.48 ± 0.08 | -1.21 ± 0.08 | – | – | heat change of protein-ligand interaction after subtraction of the blank (PR10-10 [3]; ITC thermogram, pH 5.5): -0.2 µcal/s; Kd (PR10-10 [3]; CBS buffer, Fig. 4b prints no unit, read-out: Kd): ~225 µM; Kd (PR10-10 [3]; CBS pH 5.5, printed in brackets beside *, read-out: Kd (estimate, low enthalpy system)): 225 µM; solubility [4]: 1200 µM (≈ 407 µg/mL); formation of dense aggregate bands in gradient [5]: one or more visibly insoluble dense aggregate bands; Kd (THS2 [6]): 333 µM; IC50 (THS2 [6]; IC50, THS2, 10 µM protein and 10 µM ANS, CBS pH 5.5): 493 µM; Log10IC50 (THS2 [6]; THS2, 10 µM protein and 10 µM ANS, CBS pH 5.5): 2.69 ± 0.71; Hill Slope (THS2 [6]; THS2, ANS displacement dose-response fit): -0.88 ± 0.34 |
| COC1=CC=C2[C@H]3Cc4ccc(OC)c5c4[C@@]2(CCN3C)[C@H]1O5 [Thebaine, thebaine] | 394 | 2.60 ± 0.20 | 292 | 445 | 2.65 ± 0.21 | 432 | 2570 | 3.41 ± 1.42 | 2350 | – | 171 | 199 µM and 200 µM | 2.30 ± 0.14 | 0.92 ± 0.16 | 612 | 690 | 2.84 ± 0.23 | -1.05 ± 0.19 | 21.6 ± 0.71 | -2.396 ± 0.1109 | Kd (PR10-12 [8]; listed as thebaine): 22 µM; ΔS (NISO [9]): 13.6 cal/mol/˚K; N (NISO [9]): 0.786 ± 0.0251; Kd (NISO [9]): 18 µM and 18.2 µM; ΔH (THS2 [10]): 2.45 ± 0.09784 kcal/mol; ΔS (THS2 [10]): 28.8 cal/mol/˚K; N (THS2 [10]): 0.523 ± 0.0156; Kd (THS2 [10]): 31 µM and 31.2 µM |
| COc1ccc2c3c1O[C@H]1[C@@H](O)C=C[C@H]4[C@@H](C2)N(C)CC[C@@]341 [Codeine, codeine] | 203 | 2.31 ± 0.14 | 151 | 1500 | 3.18 ± 0.36 | 1460 | – | – | – | ~ 0.13 ± 0.35 | 24.2 | 28 µM and 28.2 µM | 1.45 ± 0.13 | -0.72 ± 0.13 | 931 | 1050 | 3.02 ± 0.17 | -0.97 ± 0.13 | 140 ± 13.6 | -3.556 ± 0.02607 | Kd (PR10-12 [8]; listed as codeine): 140 µM; ΔS (NISO [9]): 13.9 cal/mol/˚K; N (NISO [9]): 1.07 ± 0.00547; Kd (NISO [9]): 2 µM and 2.22 µM; ΔH (THS2 [10]): 1.868 ± 0.0686 kcal/mol; ΔS (THS2 [10]): 27.2 cal/mol/˚K; N (THS2 [10]): 0.51 ± 0.0145; Kd (THS2 [10]): 26 µM and 26.5 µM |
